Here are results for four molecules from US11607421B2, “Ethanolamine-based lipid biosynthetic compounds, method of making and use thereof” (Metanoi Therapeutics, Inc., priority 2016, dated 2023).

For data set [1], the target named is FR1 (Homo sapiens, UniProt P15328). The conditions noted are these: read-out: affinity; cited from earlier work.
The target in data set [2] is FR2 (Homo sapiens, UniProt P14207). The settings on record: read-out: affinity; cited from earlier work.
In data set [3] the target is KIFC1 (Homo sapiens, UniProt Q9BW19). The settings on record: ATP-competitive, MT-noncompetitive; cited from earlier work.
KIFC1, sequence (Q9BW19 whole entry, species assumed): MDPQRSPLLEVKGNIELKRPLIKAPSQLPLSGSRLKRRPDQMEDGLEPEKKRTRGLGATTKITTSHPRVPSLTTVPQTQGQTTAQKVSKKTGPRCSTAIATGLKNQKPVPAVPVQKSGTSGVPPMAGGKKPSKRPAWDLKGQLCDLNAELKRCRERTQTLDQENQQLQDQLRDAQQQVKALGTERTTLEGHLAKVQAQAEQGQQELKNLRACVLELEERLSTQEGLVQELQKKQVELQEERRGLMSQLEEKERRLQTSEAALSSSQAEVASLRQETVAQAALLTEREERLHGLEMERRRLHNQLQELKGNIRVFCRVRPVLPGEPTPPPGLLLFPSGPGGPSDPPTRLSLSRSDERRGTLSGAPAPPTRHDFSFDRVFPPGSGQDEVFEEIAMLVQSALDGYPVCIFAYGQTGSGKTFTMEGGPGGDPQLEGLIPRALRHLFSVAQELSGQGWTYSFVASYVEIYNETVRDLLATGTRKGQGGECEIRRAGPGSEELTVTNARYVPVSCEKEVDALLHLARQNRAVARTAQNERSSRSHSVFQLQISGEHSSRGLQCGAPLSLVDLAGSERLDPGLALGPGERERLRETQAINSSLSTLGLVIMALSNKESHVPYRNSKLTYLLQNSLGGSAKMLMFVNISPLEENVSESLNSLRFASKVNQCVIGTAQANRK
KIFC1, sequence (P68363 whole entry partner, species assumed): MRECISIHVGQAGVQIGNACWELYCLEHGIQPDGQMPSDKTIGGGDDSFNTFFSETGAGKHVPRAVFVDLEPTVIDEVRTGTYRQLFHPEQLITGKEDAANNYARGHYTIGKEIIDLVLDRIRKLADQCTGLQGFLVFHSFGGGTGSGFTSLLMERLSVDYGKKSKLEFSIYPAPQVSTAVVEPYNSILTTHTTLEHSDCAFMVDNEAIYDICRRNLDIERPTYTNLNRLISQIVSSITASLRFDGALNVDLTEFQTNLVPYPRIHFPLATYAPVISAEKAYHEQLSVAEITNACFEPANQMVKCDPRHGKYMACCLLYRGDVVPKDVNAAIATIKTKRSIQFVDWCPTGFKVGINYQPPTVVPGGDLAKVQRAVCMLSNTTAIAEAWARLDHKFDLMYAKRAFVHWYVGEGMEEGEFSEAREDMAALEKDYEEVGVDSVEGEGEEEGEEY
KIFC1, sequence (Q9BVA1 whole entry partner, species assumed): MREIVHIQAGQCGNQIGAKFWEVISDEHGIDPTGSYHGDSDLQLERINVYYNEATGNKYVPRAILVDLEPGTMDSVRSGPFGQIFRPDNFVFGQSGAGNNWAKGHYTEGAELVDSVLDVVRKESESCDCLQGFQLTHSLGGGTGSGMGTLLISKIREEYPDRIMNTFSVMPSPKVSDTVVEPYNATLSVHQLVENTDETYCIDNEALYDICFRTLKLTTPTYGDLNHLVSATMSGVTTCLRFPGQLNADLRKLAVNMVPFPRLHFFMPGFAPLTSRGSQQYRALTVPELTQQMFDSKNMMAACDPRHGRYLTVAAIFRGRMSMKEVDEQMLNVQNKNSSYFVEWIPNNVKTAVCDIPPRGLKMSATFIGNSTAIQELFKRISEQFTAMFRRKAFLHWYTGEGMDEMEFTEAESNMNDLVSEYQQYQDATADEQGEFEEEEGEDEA
Data set [4] deals with BT-549 breast cancer cells. The conditions noted are these: cells with amplified centrosomes; cited from earlier work.
Data set [5] is described as follows: Stability in simulated gastric fluid (SGF). The format is in vitro ADME. The settings on record: 10 μM, SGF pH 1.2, over 1 h. The method, then:
(§1) Samples (100 μl) were drawn at 0, 15, 30 and 60 min from SGF reaction-vials and at 0, 30, 60 and 120 min from SIF reaction-vials, quenched with acetonitrile, vortex-mixed, and centrifuged before supernatant analysis by LC-MS/MS analysis. […] For PK studies, a sparse sampling design with 3 mice per time point was used to collect blood samples at 5, 10, 15, 30 min and 1, 2, 3, 4, 5 and 6 h in K2EDTA-coated tubes. The pharmacokinetic parameters (AUClast, Cmax, CL and Vss) were calculated using non-compartmental analysis tool of Phoenix WinNonlin software (version 6.3).
(§2) Given the extreme pH and various digestive enzymes, the GI tract presents a harsh environment to any ingested xenobiotic. Thus, many potential drug candidates are degraded in the GI tract, explaining their decreased bioavailability or inability to reach the target at effective concentrations. Simulated gastric fluid (SGF; pH 1.2) and simulated intestinal fluid (SIF; pH 6.8) closely mimic the GI tract environment and are amenable in vitro systems to evaluate degradation of a compound in GI tract (US Pharmacopoia).
(§3) Simulated gastric fluid was prepared as per U.S. Pharmacopeia (USP) methods. Sodium chloride (2 g) and pepsin (3.2 g, from porcine stomach mucosa) were dissolved in 7.0 ml hydrochloric acid and Milli-Q water to make up the volume to 1000 ml and the pH was adjusted to 1.2. […]

A short description of data set [6]: Stability in simulated intestinal fluid (SIF). The settings on record: 10 μM, SIF pH 6.8, after 2 h. The data set is classed as in vitro ADME. As for the experimental part:
as §1, §2, §3

Data set [7] can be described thus: Blood plasma concentration ratio assay. The data set is classed as in vitro ADME, mice. The conditions noted are these: whole blood; mouse blood, 37° C.; read-out: Blood to plasma ratio (BPR). As for the experimental part: Values and error bars shown in the figure represent mean and SE, respectively.
100 μl and 300 μl aliquots were collected at time points 0, 15, 30 and 60 min. 100 μl water was added to each of the 100 μl aliquots followed by vortexing, centrifugation at 8000 g for 10 min, and collection of the supernatants for bioanalysis. The 300 μL aliquots were centrifuged at 8000 g for 10 min to separate the plasma, followed by collection of the supernatants for bioanalysis.

A short description of data set [8]: Pharmacokinetic studies, single oral and intravenous dose. The data set is classed as in vivo, BALB/c mice. The conditions noted are these: male, BALB/c, mouse, plasma, analyte PhosE; for Cmax: read-out: Cmax/C0. The method, then: as §1
Nine animals per group were used for PK studies. A sparse sampling design was used to collect blood samples from animals at 5 min, 10 min, 15 min, 30 min, 1, 2, 3, 4, 5, and 6 h in K2EDTA coated tubes. Plasma was collected from blood by centrifugation of samples at 8000 g for 10 min. Plasma samples were stored below −60° C. until further analysis.
PK parameters were calculated from the concentration-time data using the non-compartmental analysis tool of Phoenix WinNolin® software (version 6.3, Pharsight, St Louis, Mo.). The area under the concentration time curve (AUClast) was calculated by the linear trapezoidal rule. Following oral administration, peak concentration (Cmax) and time for the peak concentration (Tmax) were the observed values. The clearance (CL) and volume of distribution (Vss) were estimated following IV dose administration. The elimination rate constant value (k) was obtained by linear regression of the log-linear terminal phase of the concentration-time profile using at least three declining concentrations in terminal phase with a correlation coefficient of >0.8. The terminal half-life value (T1/2) was calculated using the equation ln 2/k. Oral bioavailability was calculated by taking the ratio of dose normalized AUClast following oral administration to IV administration.

In data set [9] the test system is PC-3 cells. In words: MTT cell proliferation assay. The format is cell-based, human. The settings on record: MTT, 48 h, pH 7.4. The method, then:
(§4) Next, a clonogenic cell survival assay was performed to assess the reproductive capacity of cells upon drug removal.
(§5) After 48 h, drug containing medium was replaced by medium containing MTT (tetrazolium bromide) at a concentration of 0.5 mg/ml. The yellow tetrazolium salt is reduced to insoluble purple formazan by viable cells. After 4 h of incubation in dark, formazan crystals produced by viable cells were dissolved by 200 μl DMSO and the amount of formazan crystals formed was quantified by recording the absorbance at 570 nm using multi-well plate reader. […] After 10 days, colonies were fixed with 4% formaldehyde, stained with crystal violet and counted.

The test system of data set [10] is PC-3 cells. In words: Clonogenic cell survival (colony) assay. The conditions noted are these: 2 mg/ml, 48 h treatment, colonies after 10 days. The data set is classed as cell-based, human. As for the experimental part:
as §4, §5

Data set [11] deals with PC-3 cells. Description: Intracellular levels of Etn and PhosE by LC-MS/MS. The format is cell-based, human. The conditions noted are these: 1 mg/ml, 48 h, pH 7.4.
Data set [12] has as its target CYP1A2 (Homo sapiens, UniProt P05177). In words: CYP inhibition in human liver microsomes. For orientation: Liver microsomes are vesicles of endoplasmic reticulum, rich in cytochrome P450 enzymes.
The target of data set [13] is CYP2A6 (Homo sapiens, UniProt P11509). Description: CYP inhibition in human liver microsomes.
Data set [14] addresses CYP2B6 (Homo sapiens, UniProt P20813). Description: CYP inhibition in human liver microsomes.
For data set [15], the target named is CYP2C8 (Homo sapiens, UniProt P10632). Description: CYP inhibition in human liver microsomes.
The target of data set [16] is CYP2C9 (Homo sapiens, UniProt P11712). In words: CYP inhibition in human liver microsomes.
Data set [17] concerns the target CYP2C19 (Homo sapiens, UniProt P33261). Description: CYP inhibition in human liver microsomes.
The target of data set [18] is CYP2D6 (Homo sapiens, UniProt P10635). Description: CYP inhibition in human liver microsomes.
CYP2D6, sequence (P10635 whole entry): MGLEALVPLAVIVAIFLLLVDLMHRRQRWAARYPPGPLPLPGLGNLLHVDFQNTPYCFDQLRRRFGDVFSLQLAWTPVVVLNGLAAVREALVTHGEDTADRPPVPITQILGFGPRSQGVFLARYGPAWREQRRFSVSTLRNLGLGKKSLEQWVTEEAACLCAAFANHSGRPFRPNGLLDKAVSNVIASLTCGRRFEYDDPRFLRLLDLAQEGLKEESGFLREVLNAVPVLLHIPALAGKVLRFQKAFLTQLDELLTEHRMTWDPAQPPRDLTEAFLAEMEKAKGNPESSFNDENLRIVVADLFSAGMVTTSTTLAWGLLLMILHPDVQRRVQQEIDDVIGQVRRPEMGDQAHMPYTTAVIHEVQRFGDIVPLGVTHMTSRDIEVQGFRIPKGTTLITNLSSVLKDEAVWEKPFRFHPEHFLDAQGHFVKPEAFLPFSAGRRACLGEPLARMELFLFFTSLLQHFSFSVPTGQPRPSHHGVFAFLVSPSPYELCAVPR
In data set [19] the target is CYP2E1 (Homo sapiens, UniProt P05181). Description: CYP inhibition in human liver microsomes.
CYP2E1, sequence (P05181 whole entry): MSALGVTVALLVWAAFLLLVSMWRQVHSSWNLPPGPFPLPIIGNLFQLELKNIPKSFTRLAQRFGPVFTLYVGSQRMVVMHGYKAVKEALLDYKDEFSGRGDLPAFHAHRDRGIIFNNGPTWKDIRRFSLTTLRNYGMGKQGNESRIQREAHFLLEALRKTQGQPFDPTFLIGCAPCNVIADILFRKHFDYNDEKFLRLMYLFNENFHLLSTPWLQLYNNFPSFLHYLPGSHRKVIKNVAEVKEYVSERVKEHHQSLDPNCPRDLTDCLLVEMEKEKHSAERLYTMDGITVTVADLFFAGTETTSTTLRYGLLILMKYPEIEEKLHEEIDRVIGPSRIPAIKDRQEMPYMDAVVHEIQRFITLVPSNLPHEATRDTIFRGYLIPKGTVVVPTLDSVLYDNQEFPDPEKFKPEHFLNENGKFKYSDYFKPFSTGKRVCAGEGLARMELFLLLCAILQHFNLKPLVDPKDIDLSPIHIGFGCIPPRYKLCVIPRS
Data set [20] concerns the target CYP3A4 (Homo sapiens, UniProt P08684). Description: CYP inhibition in human liver microsomes.

Read-outs that look alike come from different tables or passages of the source.

CYP3A4, sequence (P08684 whole entry): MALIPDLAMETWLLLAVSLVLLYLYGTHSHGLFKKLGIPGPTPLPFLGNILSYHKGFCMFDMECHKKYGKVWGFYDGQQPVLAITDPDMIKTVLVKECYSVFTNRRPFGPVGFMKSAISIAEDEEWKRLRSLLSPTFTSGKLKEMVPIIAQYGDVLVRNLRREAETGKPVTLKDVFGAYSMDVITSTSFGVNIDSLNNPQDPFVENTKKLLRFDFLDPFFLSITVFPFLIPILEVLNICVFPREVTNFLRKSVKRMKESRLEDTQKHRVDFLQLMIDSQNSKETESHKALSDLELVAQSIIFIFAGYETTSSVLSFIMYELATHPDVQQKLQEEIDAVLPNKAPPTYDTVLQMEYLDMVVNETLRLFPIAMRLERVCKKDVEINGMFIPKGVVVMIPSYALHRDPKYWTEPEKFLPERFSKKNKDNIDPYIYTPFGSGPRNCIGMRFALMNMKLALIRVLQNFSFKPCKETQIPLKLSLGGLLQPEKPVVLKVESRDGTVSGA
FR2, sequence (P14207 17-230): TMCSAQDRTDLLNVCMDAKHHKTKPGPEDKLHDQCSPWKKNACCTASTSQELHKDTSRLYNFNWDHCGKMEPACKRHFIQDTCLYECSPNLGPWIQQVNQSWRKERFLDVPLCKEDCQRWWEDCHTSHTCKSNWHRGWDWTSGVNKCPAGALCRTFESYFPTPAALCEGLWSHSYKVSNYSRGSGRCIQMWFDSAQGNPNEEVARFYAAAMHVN
FR1, sequence (P15328 25-234): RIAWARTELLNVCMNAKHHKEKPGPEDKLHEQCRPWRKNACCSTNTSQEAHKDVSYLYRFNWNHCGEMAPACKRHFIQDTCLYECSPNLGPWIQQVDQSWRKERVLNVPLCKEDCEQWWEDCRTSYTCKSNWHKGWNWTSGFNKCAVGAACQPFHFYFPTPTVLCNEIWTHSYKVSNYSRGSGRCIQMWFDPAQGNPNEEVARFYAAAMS
CYP2B6, sequence (P20813 whole entry): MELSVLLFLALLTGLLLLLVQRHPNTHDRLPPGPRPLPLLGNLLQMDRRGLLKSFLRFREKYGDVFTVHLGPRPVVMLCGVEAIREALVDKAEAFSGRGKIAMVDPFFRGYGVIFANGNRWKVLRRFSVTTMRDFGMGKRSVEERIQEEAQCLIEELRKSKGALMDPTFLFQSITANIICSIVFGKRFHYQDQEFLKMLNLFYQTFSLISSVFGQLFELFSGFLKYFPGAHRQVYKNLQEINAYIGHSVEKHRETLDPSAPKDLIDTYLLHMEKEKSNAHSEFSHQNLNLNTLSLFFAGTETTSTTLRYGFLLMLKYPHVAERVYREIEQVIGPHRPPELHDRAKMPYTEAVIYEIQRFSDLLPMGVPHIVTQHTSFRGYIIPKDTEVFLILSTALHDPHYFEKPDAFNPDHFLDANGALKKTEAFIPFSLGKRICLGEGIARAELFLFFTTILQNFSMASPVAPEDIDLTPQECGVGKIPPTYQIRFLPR
CYP1A2, sequence (P05177 whole entry): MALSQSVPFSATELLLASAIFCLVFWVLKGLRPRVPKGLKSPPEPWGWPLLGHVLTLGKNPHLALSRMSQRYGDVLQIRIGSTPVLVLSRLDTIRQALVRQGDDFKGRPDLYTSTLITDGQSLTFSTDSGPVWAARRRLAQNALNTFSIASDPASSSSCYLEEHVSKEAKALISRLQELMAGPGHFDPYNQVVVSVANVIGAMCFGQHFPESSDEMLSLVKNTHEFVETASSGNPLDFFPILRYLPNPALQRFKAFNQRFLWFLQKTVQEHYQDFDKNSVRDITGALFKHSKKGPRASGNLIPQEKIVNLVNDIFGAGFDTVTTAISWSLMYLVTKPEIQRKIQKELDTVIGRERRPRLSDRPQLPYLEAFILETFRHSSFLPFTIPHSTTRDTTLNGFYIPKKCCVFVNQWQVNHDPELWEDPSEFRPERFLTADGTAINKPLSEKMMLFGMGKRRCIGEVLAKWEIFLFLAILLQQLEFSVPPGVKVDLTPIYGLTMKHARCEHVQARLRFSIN

Turning to `CN1c2c(nc(N)[nH]c2=O)NC[C@@H]1CNc1ccc(C(=O)N[C@@H](CCC(=O)O)C(=O)O)cc1` [6S 5-methyltetrahydrofolate], the Kd is 0.055 µM in data set [1] and 0.001 µM in data set [2].
Consider `CCCc1cc(C(=O)N[C@H](Cc2ccc(-c3cccc(OC(F)(F)F)c3)nc2)C(=O)N[C@@H]2CCNC2)sc1C` [AZ82], for which the Ki in data set [3] is 0.043 µM. Besides, the centrosome declustering entry in data set [4] was “causes centrosome declustering”.
With `NCCOP(=O)(O)O` [PhosE, phosphoethanolamine], the “stability in SGF” value in [5] is given as “stable”. Also, the “decrease in concentration in SIF” value in data set [6] was about 35%. The blood plasma ratio at 50 μM in [7] is under 1.5. For the same molecule, in data set [8] (iv, 3 mg/kg, PhosE 3 mg/kg iv), the half-life is under 1 h. The figures for the AUC(0-t) in data set [8] (PhosE 3 mg/kg iv) and in data set [8] (PhosE 60 mg/kg po) were 490 ng·h/mL and 1890 ng·h/mL, respectively. Besides, the MRT last in data set [8] (PhosE 3 mg/kg iv) was 0.79 h. This molecule yielded a clearance in [8] (PhosE 3 mg/kg iv) of 102 mL/min/kg. The Cmax in data set [8] (PhosE 3 mg/kg iv) stood at 1250 ng/mL; in [8] (PhosE 60 mg/kg po) it was 1140 ng/mL. In addition, the Vd in [8] (PhosE 3 mg/kg iv, read-out: Vss) was 4.82 L/kg. In data set [8] (PhosE 60 mg/kg po vs 3 mg/kg iv, read-out: F (oral bioavailability)), the bioavailability is 19%. In addition, in data set [8] (PhosE 60 mg/kg po), the Tmax is 1 h. In addition, in data set [9], the “inhibition of PC-3 cell proliferation” value was “only showed limited inhibition of PC-3 cell proliferation up to 0.5 mg/ml”. For the same molecule, the “decrease in colony numbers compared to control cells” value in [10] is recorded as “ineffective in decreasing colony numbers”. The “increase in intracellular PhosE levels compared to control cells” value in [11] is recorded as about 15 fold. The half-inhibitory concentration (IC50) in data set [12], in [13], in data set [14], in [15], in data set [16] and in data set [17] was over 100 µM each time. Also, the IC50 in data set [18] was over 100 µM; in data set [19], over 100 µM; in data set [20], over 100 µM; in [20] (3A4-mida: CYP3A4 substrate midazolam, human liver microsomes) it was over 100 µM; in data set [20] (3A4-testo: CYP3A4 substrate testosterone, human liver microsomes) it was over 100 µM.
Consider `Nc1nc2c(c(=O)[nH]1)N(C=O)C(CNc1ccc(C(=O)N[C@@H](CCC(=O)O)C(=O)O)cc1)CN2` (stereo partly drawn) [leucovorin, 6S 5-formyltetrahydrofolate], for which the results for the Kd in [1] and in data set [2] were 0.8 µM and 0.007 µM, respectively.

The term Ki denotes the dissociation constant of the complex between target and ligand, obtained from inhibition or displacement. Usually half-life stands for how long it takes for the measured level to halve. Low readings indicate fast loss, high ones slow loss. For orientation: AUC(0-t) means the area under the concentration-time curve up to a stated or last time point. Higher therefore signals more exposure. In general, MRT last refers to a mean duration of stay, worked out from the concentration-time curve. A word on the bioavailability: it is dose-corrected exposure relative to a reference, in per cent. What is called Tmax is the time at which the peak concentration occurs. In general, IC50 refers to the concentration that inhibits the measured activity by half. A low value points to higher potency.
